In US20250230155A1 (Vanderbilt University, priority 2021, published 2025):

Target: T1, human mAChR M4 (Homo sapiens, UniProt P08173)
T1 construct: expressed in transfected cells
T1 sequence (P08173 1-479): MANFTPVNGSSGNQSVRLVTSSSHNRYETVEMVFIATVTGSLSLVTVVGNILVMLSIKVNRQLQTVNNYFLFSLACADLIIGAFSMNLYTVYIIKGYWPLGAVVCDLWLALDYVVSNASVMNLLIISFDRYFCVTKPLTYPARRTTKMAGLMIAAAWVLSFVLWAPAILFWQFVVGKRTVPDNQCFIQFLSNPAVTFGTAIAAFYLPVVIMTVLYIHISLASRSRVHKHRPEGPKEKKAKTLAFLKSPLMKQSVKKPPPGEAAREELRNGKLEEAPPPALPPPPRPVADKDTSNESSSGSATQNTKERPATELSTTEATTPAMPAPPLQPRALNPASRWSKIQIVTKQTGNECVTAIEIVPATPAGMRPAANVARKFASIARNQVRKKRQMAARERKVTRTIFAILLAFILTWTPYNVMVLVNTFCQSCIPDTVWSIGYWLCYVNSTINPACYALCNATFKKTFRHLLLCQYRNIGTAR
Assay: mAChR M4 cell-based functional assay (calcium mobilization, CHO-K1 hM4-Gqi5 cells)
Settings: for Emax at 30 µM: CHO-K1, % ACh maximum at 30 μM, human M4; for EC50: positive allosteric modulator activity, increase in the EC20 acetylcholine response, CHO-K1 hM4-Gqi5 cells, read-out: Human M4 EC50
How it was run: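 CHO-K1 cells stably expressing human M4 with chimeric Gqi5, loaded with Fluo-4 AM; compounds given as 11-point 1:3 curves and calcium flux read on FDSS at 1 Hz. Acetylcholine EC20 added at 144 s, EC80 at 230 s; agonist, PAM (EC20 potentiation) and antagonist (EC80 inhibition) EC50/Emax from four-parameter fits.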

Emax at 30 µM [%] | EC50 [nM] | SMILES | Emax (CHO-K1) [%]
83 | 267 | Cc1noc(C)c1-c1cnc2c(c1)CN(c1nnc(C#N)c(C)c1C)CC2 [Example 297, 6-(3-(3,5-dimethylisoxazol-4-yl)-7,8-dihydro-1,6-naphthyridin-6(5H)-yl)-4,5-dimethylpyridazine-3-carbonitrile] | 
103 | 76 | Cc1cc(C#N)cnc1N1CCc2ncc(N3CCC(C)n4nccc43)cc2C1 (stereo not shown) [Example 386, 5-methyl-6-(3-(7-methyl-6,7-dihydropyrazolo[1,5-a]pyrimidin-4(5H)-yl)-7,8-dihydro-1,6-naphthyridin-6(5H)-yl)nicotinonitrile] | 
86 | 286 | Cc1cc(C#N)cnc1N1CCc2ncc(N3CCCC3)cc2C1 [Example 1] | 
85 | 3170 | Cc1cc(C(=O)N2CCc3cnccc3C2)nnc1N1CCc2ncc(C(F)(F)F)cc2C1 [Example 498, (3,4-dihydro-2,6-naphthyridin-2(1H)-yl)(5-methyl-6-(3-(trifluoromethyl)-7,8-dihydro-1,6-naphthyridin-6(5H)-yl)pyridazin-3-yl)methanone] | 
66 | 616 | Cc1nc(Cl)c(C)c(N2Cc3cc(N4CCCn5nccc54)cnc3C(C)(C)C2)n1 [compound 250, 6-(6-chloro-2,5-dimethylpyrimidin-4-yl)-3-(6,7-dihydropyrazolo[1,5-a]pyrimidin-4(5H)-yl)-8,8-dimethyl-5,6,7,8-tetrahydro-1,6-naphthyridine] | 
91 | 251 | Cc1cnc2c(c1)CN(c1nnc(C(=O)NCc3cnc4ccccc4c3)c(C)c1C)CC2 [Example 471, 4,5-dimethyl-6-(3-methyl-7,8-dihydro-1,6-naphthyridin-6(5H)-yl)-N-(quinolin-3-ylmethyl)pyridazine-3-carboxamide] | 
51 | ≥ 10000 | Cc1cc(C(=O)NCC2CCOCC2)cnc1N1CCc2ncccc2C1 [compound 160, 6-(7,8-dihydro-5H-1,6-naphthyridin-6-yl)-5-methyl-N-(tetrahydropyran-4-ylmethyl)pyridine-3-carboxamide] | 
98 | 263 | CCn1cc(-c2cnc3c(c2)CN(c2ncc(C#N)cc2C)CC3)cn1 [compound 105, 6-[3-(1-ethylpyrazol-4-yl)-7,8-dihydro-5H-1,6-naphthyridin-6-yl]-5-methyl-pyridine-3-carbonitrile] | 
95 | 77.3 | Cc1cc(C(=O)NCc2nccs2)cnc1N1CCc2ncc(-c3cnn(C)c3)cc2C1 [compound 173, 5-methyl-6-[3-(1-methylpyrazol-4-yl)-7,8-dihydro-5H-1,6-naphthyridin-6-yl]-N-(thiazol-2-ylmethyl)pyridine-3-carboxamide] | 
81 | 111 | Cc1nc(C)c(C)c(N2CCc3ncc(Nc4ccnn4C)cc3C2)n1 [compound 241, N-(1-methyl-1H-pyrazol-5-yl)-6-(2,5,6-trimethylpyrimidin-4-yl)-5,6,7,8-tetrahydro-1,6-naphthyridin-3-amine] | 
96 | 424 | Cc1cc(C(=O)Nc2ccncc2)cnc1N1CCc2ncc(C(F)(F)F)cc2C1 [Example 442, 5-methyl-N-(pyridin-4-yl)-6-(3-(trifluoromethyl)-7,8-dihydro-1,6-naphthyridin-6(5H)-yl)nicotinamide] | 
70 | 544 | Cc1cc(C(=O)Nc2ccncc2)cnc1N1CCc2ncccc2C1 [compound 121, 6-(7,8-dihydro-5H-1,6-naphthyridin-6-yl)-5-methyl-N-(4-pyridyl)pyridine-3-carboxamide] | 
97 | 171 | Cc1cc(C#N)nnc1N1CCc2ncc(N3CCC(C)n4nccc43)cc2C1 (stereo not shown) [Example 383, 5-methyl-6-(3-(7-methyl-6,7-dihydropyrazolo[1,5-a]pyrimidin-4(5H)-yl)-7,8-dihydro-1,6-naphthyridin-6(5H)-yl)pyridazine-3-carbonitrile] | 
86 | 647 | Cc1nc(Cl)c(C)c(N2CCc3ncc(Oc4cccc(F)c4)cc3C2)n1 [compound 203, 6-(6-chloro-2,5-dimethyl-pyrimidin-4-yl)-3-(3-fluorophenoxy)-7,8-dihydro-5H-1,6-naphthyridine] | 
99 | 98 | Cc1cc(C(=O)N2CCC(c3ccncc3)C2)nnc1N1CCc2ncc(N3CCCn4nccc43)cc2C1 (stereo not shown) [Example 521, (6-(3-(6,7-dihydropyrazolo[1,5-a]pyrimidin-4(5H)-yl)-7,8-dihydro-1,6-naphthyridin-6(5H)-yl)-5-methylpyridazin-3-yl)(3-(pyridin-4-yl)pyrrolidin-1-yl)methanone] | 
33 | 1140 | Cc1cc(C#N)cnc1N1CCc2ncc(-c3cnn(-c4ccc(F)cc4)c3)cc2C1 [compound 106, 6-[3-[1-(4-fluorophenyl)pyrazol-4-yl]-7,8-dihydro-5H-1,6-naphthyridin-6-yl]-5-methyl-pyridine-3-carbonitrile] | 
111 | 106 | Cc1nc(C)c(-c2cnc3c(c2)CN(c2ncc(C#N)cc2C)CC3)s1 [compound 184, 6-[3-(2,4-dimethylthiazol-5-yl)-7,8-dihydro-5H-1,6-naphthyridin-6-yl]-5-methyl-pyridine-3-carbonitrile] | 
107 | 197 | Cc1cc(C(=O)N2CCOCC2)nnc1N1CCc2ncc(N3CCCn4nccc43)cc2C1 [Example 515, (6-(3-(6,7-dihydropyrazolo[1,5-a]pyrimidin-4(5H)-yl)-7,8-dihydro-1,6-naphthyridin-6(5H)-yl)-5-methylpyridazin-3-yl)(morpholino)methanone] | 
72 | 358 | Cc1nc(C)c(C)c(N2CCc3ncc(Oc4cccc(F)c4F)cc3C2)n1 [compound 261, 3-(2,3-difluorophenoxy)-6-(2,5,6-trimethylpyrimidin-4-yl)-5,6,7,8-tetrahydro-1,6-naphthyridine] | 
91 | 217 | FC(F)(F)c1cnc2c(c1)CN(c1nc(Cl)nc3c1CCC3)CC2 [compound 259, 6-(2-chloro-6,7-dihydro-5H-cyclopenta[d]pyrimidin-4-yl)-3-(trifluoromethyl)-5,6,7,8-tetrahydro-1,6-naphthyridine] | 
73 | 219 | Cc1cc(C#N)nnc1N1CCc2ncc(Nc3cccnc3F)cc2C1 [Example 399, 6-(3-((2-fluoropyridin-3-yl)amino)-7,8-dihydro-1,6-naphthyridin-6(5H)-yl)-5-methylpyridazine-3-carbonitrile] | 
80 | 14 | Cc1cc(C(=O)N2CC(C)(C#N)C2)nnc1N1CCc2ncc(N3CCCn4nccc43)cc2C1 [Example 519, 1-(6-(3-(6,7-dihydropyrazolo[1,5-a]pyrimidin-4(5H)-yl)-7,8-dihydro-1,6-naphthyridin-6(5H)-yl)-5-methylpyridazine-3-carbonyl)-3-methylazetidine-3-carbonitrile] | 

SMILES | Emax at 30 µM [%] | EC50 [nM] | Emax (CHO-K1) [%]
Cc1nc(Cl)c(C)c(N2Cc3cc(N)cnc3C(C)C2)n1 (stereo not shown) [compound 255, 6-(6-chloro-2,5-dimethylpyrimidin-4-yl)-8-methyl-5,6,7,8-tetrahydro-1,6-naphthyridin-3-amine] |  | 2100 | 88
